These results are taken from patent US11203600B2 (Denali Therapeutics Inc., priority 2017, dated 2021).

Chain of GST-hRIPK1 (8-327) (Q13546 8-327): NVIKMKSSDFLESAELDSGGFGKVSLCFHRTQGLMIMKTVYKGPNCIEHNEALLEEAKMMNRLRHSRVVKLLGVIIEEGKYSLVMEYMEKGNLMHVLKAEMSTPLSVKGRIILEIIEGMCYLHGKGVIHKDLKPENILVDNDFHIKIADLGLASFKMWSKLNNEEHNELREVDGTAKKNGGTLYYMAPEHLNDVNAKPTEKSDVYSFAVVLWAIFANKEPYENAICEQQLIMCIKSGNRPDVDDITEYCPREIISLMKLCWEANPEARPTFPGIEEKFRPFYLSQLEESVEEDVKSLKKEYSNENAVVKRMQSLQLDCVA

In one experiment the target is GST-hRIPK1 (8-327) (Homo sapiens (Human), UniProt Q13546). The experiment can be described thus: Fluorescent Polarization Binding (FP Binding) assay, RIPK1. Conditions: 10 nM GST-hRIPK1 (8-327), 5 nM fluorescent-labeled ligand, RT, 30 min, mean of at least two independent experiments. The essentials:
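Binding by fluorescence polarisation at RT: 10 nM baculovirus-expressed GST-hRIPK1 (8-327) and 5 nM fluorescent ligand, 30 min, in 50 mM HEPES pH 7.5, 50 mM MgCl2, 0.02% CHAPS, 1% DMSO. FP read at ex 531/em 595 nm. IC50 from normalised percent inhibition, mean of ≥2 experiments.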
The term IC50 denotes the midpoint of a concentration-inhibition curve. Compound `CC(C)(C(=O)N1CCOc2c(C#N)cccc2C1)C(F)F` [Example 23, 4-(3,3-difluoro-2,2-dimethyl-propanoyl)-3,5-dihydro-2H-1,4-benzoxazepine-9-carbonitrile] displayed an IC50 of 0.0001 to 0.1 µM.
Same read-out and setting: with `CC(C)(C(=O)N1CCOc2c(Br)cc(F)cc2C1)C(F)F` [Example 37, 1-(9-bromo-7-fluoro-3,5-dihydro-2H-1,4-benzoxazepin-4-yl)-3,3-difluoro-2,2-dimethyl-propan-1-one] the figure was 0.1 to 1 µM; with `CC(C)(C(=O)N1Cc2ccccc2CCO1)C(F)F` [Example 38, 3,3-difluoro-2,2-dimethyl-1-(1,2,4,5-tetrahydro-3,2-benzoxazepin-2-yl)propan-1-one], greater than 1 µM.
On the same count and under the same terms, the value for `COc1ccnc(N2CCC(C(=O)N3Cc4cncc(C#N)c4OC[C@H]3C)CC2)n1` [Example 119, (3R)-4-(1-(4-methoxypyrimidin-2-yl)piperidine-4-carbonyl)-3-methyl-2,3,4,5-tetrahydropyrido[3,4-f][1,4]oxazepine-9-carbonitrile] was 0.0001 to 0.1 µM; that for `N#Cc1cncc2c1OCCN(C(=O)C1(F)CCN(c3nccn4ccnc34)CC1)C2` [Example 106, 4-(4-fluoro-1-imidazo[1,2-a]pyrazin-8-yl-piperidine-4-carbonyl)-3,5-dihydro-2H-pyrido[3,4-f][1,4]oxazepine-9-carbonitrile] was 0.1 to 1 µM.
On to `C[C@@H]1COc2c(C#N)cncc2CN1C(=O)C1(F)CCN(c2ncc(F)cn2)CC1` [Example 86, (3R)-4-[4-fluoro-1-(5-fluoropyrimidin-2-yl)piperidine-4-carbonyl]-3-methyl-3,5-dihydro-2H-pyrido[3,4-f][1,4]oxazepine-9-carbonitrile], for which the IC50 lay within 0.0001 to 0.1 µM.
The same measure, in the same setting: with `N#Cc1cncc2c1OCCN(C(=O)C1(C(F)(F)F)CC1)C2` [Example 48, 4-[1-(trifluoromethyl)cyclopropanecarbonyl]-3,5-dihydro-2H-pyrido[3,4-f][1,4]oxazepine-9-carbonitrile] the figure was 0.1 to 1 µM; with `COc1cnc(N2CCC(F)(C(=O)N3CCOc4c(C#N)cncc4C3)CC2)nc1` [Example 101, 4-[4-fluoro-1-(5-methoxypyrimidin-2-yl)piperidine-4-carbonyl]-3,5-dihydro-2H-pyrido[3,4-f][1,4]oxazepine-9-carbonitrile], 0.1 to 1 µM; with `CCOc1nc(N2CCC(F)(C(=O)N3CCOc4c(C#N)cncc4C3)CC2)ncc1F` [Example 178, 4-[1-(4-ethoxy-5-fluoro-pyrimidin-2-yl)-4-fluoro-piperidine-4-carbonyl]-3,5-dihydro-2H-pyrido[3,4-f][1,4]oxazepine-9-carbonitrile], 0.0001 to 0.1 µM.
On the same count and under the same terms, with `N#Cc1cncc2c1OCCN(C(=O)C1(F)CCN(c3ncc(C(F)(F)F)cn3)CC1)C2` [Example 170, 4-[4-fluoro-1-[5-(trifluoromethyl)pyrimidin-2-yl]piperidine-4-carbonyl]-3,5-dihydro-2H-pyrido[3,4-f][1,4]oxazepine-9-carbonitrile] the figure was 0.1 to 1 µM; with `N#Cc1cncc2c1OCCN(C(=O)C1(F)CCN(c3cnc(F)c(F)c3)CC1)C2` [Example 193, 4-[1-(5,6-difluoro-3-pyridyl)-4-fluoro-piperidine-4-carbonyl]-3,5-dihydro-2H-pyrido[3,4-f][1,4]oxazepine-9-carbonitrile], greater than 1 µM; with `CC(C)(C(=O)N1CCOc2cccc(F)c2C1)C(F)F` [Example 20, 3,3-difluoro-1-(6-fluoro-2,3-dihydrobenzo[f][1,4]oxazepin-4(5H)-yl)-2,2-dimethylpropan-1-one], 0.0001 to 0.1 µM.
Still for that read-out and setting: with `N#Cc1cncc2c1OCCN(C(=O)C1(F)CCN(c3ncncc3F)CC1)C2` [Example 112, 4-(4-fluoro-1-(5-fluoropyrimidin-4-yl)piperidine-4-carbonyl)-2,3,4,5-tetrahydropyrido[3,4-f][1,4]oxazepine-9-carbonitrile] the figure was 0.1 to 1 µM; with `O=C(C1CCN(c2ncc(F)cn2)CC1)N1Cc2ccccc2CCO1` [Example 39, 2-[1-(5-fluoropyrimidin-2-yl)piperidine-4-carbonyl]-1,2,4,5-tetrahydro-3,2-benzoxazepine], 0.1 to 1 µM.
Take `Cc1ocnc1C(=O)N1CCC(F)(C(=O)N2CCOc3c(C#N)cncc3C2)CC1` [Example 173, 4-[4-fluoro-1-(5-methyloxazole-4-carbonyl)piperidine-4-carbonyl]-3,5-dihydro-2H-pyrido[3,4-f][1,4]oxazepine-9-carbonitrile]: the IC50 is 0.1 to 1 µM.
`CC(C)(C(=O)N1CCOc2cc(F)ccc2C1)C(F)F` [Example 68, 3,3-difluoro-1-(8-fluoro-3,5-dihydro-2H-1,4-benzoxazepin-4-yl)-2,2-dimethyl-propan-1-one] showed an IC50 of 0.1 to 1 µM.
Compound `N#Cc1cncc2c1OCCN(C(=O)C1(F)CCN(c3ncc(F)cn3)C1)C2` (stereo not shown) [Example 176, 4-[3-fluoro-1-(5-fluoropyrimidin-2-yl)pyrrolidine-3-carbonyl]-3,5-dihydro-2H-pyrido[3,4-f][1,4]oxazepine-9-carbonitrile] yielded an IC50 greater than 1 µM.

Staying with this experiment, now noted: GST-hRIPK1 (8-327), mean of at least two independent experiments.
For the compound `N#Cc1cncc2c1OCCN(C(=O)C1CCN(c3ncc(F)cn3)CC1F)C2` (single isomer, unassigned) [Example 305, 4-[3-Fluoro-1-(5-fluoropyrimidin-2-yl)piperidine-4-carbonyl]-3,5-dihydro-2H-pyrido[3,4-f][1,4]oxazepine-9-carbonitrile], the IC50 fell in the range of 0.1 to 1 µM.
For the compound `CC(C(=O)N1CCOc2c(C#N)cncc2C1)(C(F)F)C1CC1` (single isomer, unassigned) [Example 258, 4-(2-Cyclopropyl-3,3-difluoro-2-methyl-propanoyl)-3,5-dihydro-2H-pyrido[3,4-f][1,4]oxazepine-9-carbonitrile], the IC50 fell in the range of 0.0001 to 0.1 µM.
Same read-out and setting: the value for `N#Cc1cncc2c1OCCN(C(=O)C1CCN(c3nccn4ncnc34)CC1F)C2` (single isomer, unassigned) [Example 302, 4-[3-Fluoro-1-([1,2,4]triazolo[1,5-a]pyrazin-8-yl)piperidine-4-carbonyl]-3,5-dihydro-2H-pyrido[3,4-f][1,4]oxazepine-9-carbonitrile] was 0.0001 to 0.1 µM; that for `O=C(C1CCN(c2nccn3ncnc23)C[C@@H]1F)N1CCOc2c(F)cncc2C1` (stereo partly drawn) [Example 257, (9-fluoro-3,5-dihydro-2H-pyrido[3,4-f][1,4]oxazepin-4-yl)-[(3,4)-trans-3-fluoro-1-([1,2,4]triazolo[1,5-a]pyrazin-8-yl)-4-piperidyl]methanone] was 0.1 to 1 µM.
Take `N#Cc1cncc2c1OCCN(C(=O)C1CCN(c3ncc(F)cn3)CC1(F)F)C2` (single isomer, unassigned) [Example 307, 4-[3,3-Difluoro-1-(5-fluoropyrimidin-2-yl)piperidine-4-carbonyl]-3,5-dihydro-2H-pyrido[3,4-f][1,4]oxazepine-9-carbonitrile]: the concentration for half-maximal inhibition (IC50) lay in the range of 0.1 to 1 µM.
Same read-out and setting: the value for `CC(C)(C(=O)N1CCOc2c(C#N)cncc2C1)C1CC(n2cc(F)cn2)C1` (stereo not shown) [Example 277, 4-[2-[3-(4-fluoropyrazol-1-yl)cyclobutyl]-2-methyl-propanoyl]-3,5-dihydro-2H-pyrido[3,4-f][1,4]oxazepine-9-carbonitrile] was 0.1 to 1 µM; that for `N#Cc1cncc2c1OCCN(C(=O)C1(F)CCN(c3ccnc4ncnn34)CC1)C2` [Example 212, 4-[4-fluoro-1-([1,2,4]triazolo[1,5-a]pyrimidin-7-yl)piperidine-4-carbonyl]-3,5-dihydro-2H-pyrido[3,4-f][1,4]oxazepine-9-carbonitrile] was 0.1 to 1 µM; that for `CC(C)(C(=O)N1CCOc2c(C#N)cncc2C1)[C@H]1C[C@H](Cn2ccnn2)C1` [Example 292, trans-4-[2-methyl-2-[3-(triazol-1-ylmethyl)cyclobutyl]propanoyl]-3,5-dihydro-2H-pyrido [3,4-f][1,4]oxazepine-9-carbonitrile] was greater than 1 µM.
Take `C=CC(C)(C)C(=O)N1CCOc2c(C#N)cncc2C1` [Example 271, 4-(2,2-dimethylbut-3-enoyl)-3,5-dihydro-2H-pyrido[3,4-f][1,4]oxazepine-9-carbonitrile]: the IC50 was in the range of 0.0001 to 0.1 µM.
Still for that read-out and setting: the value for `N#Cc1cncc2c1OCCN(C(=O)C1CCN(c3ccnc4c(F)cnn34)C[C@@H]1F)C2` (stereo partly drawn) [Example 226, 4-[(3,4)-trans-3-fluoro-1-(3-fluoropyrazolo[1,5-a]pyrimidin-7-yl)piperidine-4-carbonyl]-3,5-dihydro-2H-pyrido[3,4-f][1,4]oxazepine-9-carbonitrile] was 0.0001 to 0.1 µM; that for `COC1(C(=O)N2CCOc3c(F)cncc3C2)CCN(c2ncnc(OCC(F)F)n2)CC1` [Example 209, [1-[4-(2,2-difluoroethoxy)-1,3,5-triazin-2-yl]-4-methoxy-4-piperidyl]-(9-fluoro-3,5-dihydro-2H-pyrido[3,4-f][1,4]oxazepin-4-yl)methanone] was 0.1 to 1 µM.
On the same count and under the same terms, with `CC1(C(=O)N2CCOc3c(C#N)cncc3C2)CCN(c2ncc(F)cn2)CC1(F)F` (single isomer, unassigned) [Example 285, 4-[-3,3-Difluoro-1-(5-fluoropyrimidin-2-yl)-4-methyl-piperidine-4-carbonyl]-3,5-dihydro-2H-pyrido[3,4-f][1,4]oxazepine-9-carbonitrile] the figure was 0.1 to 1 µM; with `N#Cc1cncc2c1OCCN(C(=O)C1CCN(c3ncc(F)cn3)CCO1)C2` (stereo not shown) [Example 231, 4-[4-(5-fluoropyrimidin-2-yl)-1,4-oxazepane-7-carbonyl]-3,5-dihydro-2H-pyrido[3,4-f][1,4]oxazepine-9-carbonitrile], greater than 1 µM; with `COC1(C(=O)N2CCOc3c(C#N)cncc3C2)CCN(c2ncccn2)CC1` [Example 239, 4-(4-methoxy-1-pyrimidin-2-yl-piperidine-4-carbonyl)-3,5-dihydro-2H-pyrido[3,4-f][1,4]oxazepine-9-carbonitrile], 0.0001 to 0.1 µM.
